What was measured:
Plasmodium falciparum [1] = experiment: Antimalarial activity against Plasmodium falciparum assessed as reduction in parasite growth incubated for 48 hrs by Giemsa staining based analysis; format: functional, organism-based
Plasmodium falciparum [2] = experiment: Antiplasmodial activity against Plasmodium falciparum K1; format: functional, organism-based
Plasmodium falciparum [3] = experiment: Antiplasmodial activity against Plasmodium falciparum Dd2 assessed as reduction in parasitic growth incubated for 48 hrs by SYBR Green staining based fluorescence analysis; format: functional, organism-based; conditions: Dd2, 48 h
Plasmodium falciparum [4] = experiment: Antimalarial activity against Plasmodium falciparum Dd2 assessed as reduction in parasitic growth incubated for 48 hrs by SYBR green assay; format: functional, organism-based; conditions: Dd2, 48 h
[5] = Cytotoxicity against African green monkey Vero cells; format: toxicity, cell-based; conditions: chlorocebus sabaeus
Plasmodium falciparum [6] = experiment: Antiplasmodial activity against Plasmodium falciparum 3D7; format: functional, organism-based
Plasmodium falciparum [7] = experiment: Antiplasmodial activity against Plasmodium falciparum 3D7 assessed as reduction in parasite growth by Lactate dehydrogenase assay; format: functional, organism-based
Plasmodium falciparum [8] = experiment: Antimalarial activity against chloroquine-resistant Plasmodium falciparum W2 assessed as growth inhibition incubated for 48 hrs by flow cytometry based analysis; format: functional, organism-based; conditions: W2, 48 h
[9] = Cytotoxicity against African green monkey Vero cells assessed as reduction in cell viability incubated for 24 hrs by fluorescence based analysis; format: toxicity; conditions: African green monkey (Chlorocebus sabaeus)
Plasmodium falciparum [10] = experiment: Antiplasmodial activity against chloroquine-resistant Plasmodium falciparum W2 assessed as parasitic growth inhibition incubated for 72 hrs by SYBR Green staining based fluorescence analysis; format: functional, organism-based; conditions: W2, 72 h
Plasmodium falciparum [11] = experiment: Antiplasmodial activity against chloroquine-sensitive Plasmodium falciparum 3D7 assessed as parasitic growth inhibition incubated for 72 hrs by SYBR Green staining based fluorescence analysis; format: functional, organism-based; conditions: 3D7, 72 h

Work on NC(S)=NNc1ccnc2cc(Cl)ccc12 yielded an IC50 (Plasmodium falciparum [1]) of 25.4 µM.

In the case of O=[N+]([O-])c1ccc(NNc2ccnc3cc(Cl)ccc23)cc1, the IC50 (Plasmodium falciparum [2]) is reported as 3.26 µM.

With COc1ccc2nc(/C=C/c3ccncc3)cc(NCCN(C)C)c2c1 the IC50 (Plasmodium falciparum [3]) was 0.033 µM.

With COc1ccc2nc(/C=C/c3cccs3)cc(NCCN(C)C)c2c1 the IC50 (Plasmodium falciparum [4]) was 0.096 µM.

Work on COc1ccc(Nc2ccnc3cc(Cl)ccc23)cc1 yielded an IC50 (Plasmodium falciparum [2]) of 4.87 µM.

In the case of N=C(N=C(N)N)SCCCCNc1ccnc2cc(Cl)ccc12, the CC50 [5] is reported as > 11 µM.

Molecule CCN(CC)CCC(NCC(C)Nc1ccnc2cc(Cl)ccc12)c1ccc(C)cc1 (configuration not stated) has an IC50 (Plasmodium falciparum [6]) of 5.27 µM.

In the case of N=C(N=C(N)N)SCCNc1ccnc2cc(C(F)(F)F)ccc12, the CC50 [5] is reported as > 10.9 µM.

For N=C(N=C(N)N)SCCCCNc1ccnc2cc(C(F)(F)F)ccc12, the CC50 [5] was > 10.2 µM.

In the case of O=C(O)/C=C/c1cccc(Nc2ccnc3cc(Cl)ccc23)c1, the IC50 (Plasmodium falciparum [7]) is reported as 9.63 µM.

With CC(CNC(CCN1CCOCC1)c1ccccc1)Nc1ccnc2cc(Cl)ccc12 (configuration not stated) the IC50 (Plasmodium falciparum [6]) was 2.94 µM.

In the case of COc1ccc2nc(/C=C/c3ccncc3)cc(N3CCOCC3)c2c1, the IC50 (Plasmodium falciparum [3]) is reported as > 10 µM.

O=C1c2ccc(N3CCCCC3)cc2C(=O)N1CCCNc1ccnc2cc(Cl)ccc12 gave an IC50 (Plasmodium falciparum [8]) of 0.176 µM and an IC50 at 24 h [9] of 55.8 µM.

In the case of O=C1c2cccc(N3CCOCC3)c2C(=O)N1CCCNc1ccnc2cc(Cl)ccc12, the IC50 (Plasmodium falciparum [8]) is reported as 0.276 µM and the IC50 at 24 h [9] is reported as 222 µM.

For O=C(/C=C/c1cccc(Nc2ccnc3cc(Cl)ccc23)c1)OC1CCCCC1, the IC50 (Plasmodium falciparum [7]) was 16.4 µM.

Molecule COC(=O)/C=C/c1ccccc1Nc1ccnc2cc(Cl)ccc12 has an IC50 (Plasmodium falciparum [7]) of 2.32 µM.

OB1OCc2ccc(OCc3cn(-c4ccnc5ccc(Cl)cc45)nn3)cc21 showed an IC50 (Plasmodium falciparum [10]) of 5.22 µM and an IC50 (Plasmodium falciparum [11]) of 4.87 µM.

Molecule COc1ccc(/C(C)=N/C(=S)NNc2ccnc3cc(Cl)ccc23)cc1OC has an IC50 (Plasmodium falciparum [1]) of 38.7 µM.

Molecule Clc1ccc2c(Nc3nc[nH]n3)ccnc2c1 has an IC50 (Plasmodium falciparum [1]) of 42.6 µM.

In the case of N=C(N=C(N)N)SCCCNc1ccnc2cc(C(F)(F)F)ccc12, the CC50 [5] is reported as > 10.6 µM.

Cc1ccc(C(CCN2CCOCC2)NCC(C)Nc2ccnc3cc(Cl)ccc23)cc1 (configuration not stated) showed an IC50 (Plasmodium falciparum [6]) of 2.94 µM.

In the case of COc1ccc2nc(/C=C/c3ccc(Br)cc3)cc(NCCN(C)C)c2c1, the IC50 (Plasmodium falciparum [4]) is reported as 0.04 µM.

With CCOC(=O)/C=C/c1cccc(Nc2ccnc3cc(Cl)ccc23)c1 the IC50 (Plasmodium falciparum [7]) was 14.4 µM.

Work on COc1ccc2nc(/C=C/c3ccc([N+](=O)[O-])cc3)cc(N3CCN(CCO)CC3)c2c1 yielded an IC50 (Plasmodium falciparum [4]) of 0.672 µM.

For C/C(=N\C(=S)NNc1ccnc2cc(Cl)ccc12)c1ccc2ccccc2c1, the IC50 (Plasmodium falciparum [1]) was 79.9 µM.

For O=C1c2cccc(N3CCCCC3)c2C(=O)N1CCNc1ccnc2cc(Cl)ccc12, the IC50 (Plasmodium falciparum [8]) was 0.158 µM and the IC50 at 24 h [9] was 28.8 µM.

In the case of COc1ccc2nc(/C=C/c3ccc([N+](=O)[O-])cc3)cc(N3CCCC3)c2c1, the IC50 (Plasmodium falciparum [4]) is reported as 0.493 µM.

O=C(O)/C=C/c1ccc(Nc2ccnc3cc(Cl)ccc23)cc1 gave an IC50 (Plasmodium falciparum [7]) of 18.5 µM.

In the case of N=C(N=C(N)N)SCCNc1ccnc2cc(Cl)ccc12, the CC50 [5] is reported as > 11.8 µM.

With COC(=O)/C=C/c1cccc(Nc2ccnc3cc(Cl)ccc23)c1 the IC50 (Plasmodium falciparum [7]) was 1.81 µM.

Molecule CCN(CC)CCC(NCC(C)Nc1ccnc2cc(Cl)ccc12)c1ccc(OC)cc1 (configuration not stated) has an IC50 (Plasmodium falciparum [6]) of 2.41 µM.

With COc1ccc2nc(/C=C/c3ccncc3)cc(N3CCCCC3)c2c1 the IC50 (Plasmodium falciparum [3]) was 4.9 µM.

In the case of O=C1c2ccc(N3CCOCC3)cc2C(=O)N1CCCNc1ccnc2cc(Cl)ccc12, the IC50 (Plasmodium falciparum [8]) is reported as 0.118 µM and the IC50 at 24 h [9] is reported as 222 µM.

O=Cc1cc(OCc2cn(CCN3CCN(c4ccnc5cc(Cl)ccc45)CC3)nn2)ccc1Br gave an IC50 (Plasmodium falciparum [10]) of 8.26 µM and an IC50 (Plasmodium falciparum [11]) of 8.34 µM.

COc1ccc2nc(/C=C/c3ccncc3)cc(Nc3ccccc3)c2c1 showed an IC50 (Plasmodium falciparum [3]) of 0.965 µM.

For O=Cc1cc(OCc2cn(CCNc3ccnc4cc(Cl)ccc34)nn2)ccc1Br, the IC50 (Plasmodium falciparum [10]) was 5.07 µM and the IC50 (Plasmodium falciparum [11]) was 4.3 µM.

Work on Cc1ccc(C(CCN(C)C)NCC(C)Nc2ccnc3cc(Cl)ccc23)cc1 (configuration not stated) yielded an IC50 (Plasmodium falciparum [6]) of 5.17 µM.

For COc1ccc2nc(/C=C/c3ccc([N+](=O)[O-])cc3)cc(N3CCCCC3)c2c1, the IC50 (Plasmodium falciparum [4]) was > 10 µM.

Work on COc1ccc2nc(/C=C/c3ccncc3)cc(N3CCN(C)CC3)c2c1 yielded an IC50 (Plasmodium falciparum [3]) of 0.61 µM.

COc1ccc2nc(/C=C/c3ccc([N+](=O)[O-])cc3)cc(Nc3ccccc3)c2c1 showed an IC50 (Plasmodium falciparum [4]) of 0.509 µM.

COc1ccc(C(CCN(C)C)NCC(C)Nc2ccnc3cc(Cl)ccc23)cc1 (configuration not stated) showed an IC50 (Plasmodium falciparum [6]) of 8.25 µM.

With C/C(=N/c1ccccc1Nc1ccnc2cc(Cl)ccc12)c1ccc2ccccc2c1 the IC50 (Plasmodium falciparum [1]) was 77.6 µM.

Nc1ccccc1Nc1ccnc2cc(Cl)ccc12 showed an IC50 (Plasmodium falciparum [1]) of 35.3 µM.

CC(CNC(CCN(C)C)c1ccccc1)Nc1ccnc2cc(Cl)ccc12 (configuration not stated) showed an IC50 (Plasmodium falciparum [6]) of 3.43 µM.

Work on Cc1ccc(C(=O)NNc2ccnc3cc(Cl)ccc23)cc1 yielded an IC50 (Plasmodium falciparum [2]) of 0.92 µM.

Molecule CC(C)(C)NC(=O)/C=C/c1cccc(Nc2ccnc3cc(Cl)ccc23)c1 has an IC50 (Plasmodium falciparum [7]) of 14.8 µM.

With O=[N+]([O-])c1ccc(Nc2ccnc3cc(Cl)ccc23)cc1 the IC50 (Plasmodium falciparum [2]) was 5.51 µM.

For O=C(NNc1ccnc2cc(Cl)ccc12)c1cc(-c2ccccc2)nc2ccccc12, the IC50 (Plasmodium falciparum [2]) was 0.6 µM.

O=C1c2ccc(N3CCCCC3)cc2C(=O)N1CCNc1ccnc2cc(Cl)ccc12 showed an IC50 (Plasmodium falciparum [8]) of 0.163 µM and an IC50 at 24 h [9] of 28.8 µM.

O=Cc1cc(OCc2cn(CCCNc3ccnc4cc(Cl)ccc34)nn2)ccc1Br showed an IC50 (Plasmodium falciparum [10]) of 7.09 µM and an IC50 (Plasmodium falciparum [11]) of 6.29 µM.

O=Cc1cc(OCc2cn(-c3ccnc4ccc(Cl)cc34)nn2)ccc1Br showed an IC50 (Plasmodium falciparum [10]) of 7.39 µM and an IC50 (Plasmodium falciparum [11]) of 6.19 µM.

In the case of CC1=NC(=S)N(Nc2ccnc3cc(Cl)ccc23)C(=O)C1, the IC50 (Plasmodium falciparum [1]) is reported as 11.9 µM.

Work on COC(=O)/C=C/c1ccc(Nc2ccnc3cc(Cl)ccc23)cc1 yielded an IC50 (Plasmodium falciparum [7]) of 3.22 µM.

O=C1c2ccc(N3CCCCC3)cc2C(=O)N1CCCCCCNc1ccnc2cc(Cl)ccc12 gave an IC50 (Plasmodium falciparum [8]) of 0.012 µM and an IC50 at 24 h [9] of 25.5 µM.

COc1ccc(NNc2ccnc3cc(Cl)ccc23)cc1 gave an IC50 (Plasmodium falciparum [2]) of 3.48 µM.

In the case of COc1ccc2nc(/C=C/c3ccncc3)cc(N3CCCC3)c2c1, the IC50 (Plasmodium falciparum [3]) is reported as 0.367 µM.

For COc1ccc(C(=O)NNc2ccnc3cc(Cl)ccc23)cc1, the IC50 (Plasmodium falciparum [2]) was 1.13 µM.

With CC1(C)OB(c2ccc(OCc3cn(CCCNc4ccnc5cc(Cl)ccc45)nn3)cc2C=O)OC1(C)C the IC50 (Plasmodium falciparum [10]) was 4.64 µM and the IC50 (Plasmodium falciparum [11]) was 5.18 µM.

For COc1ccc(/C(C)=N\c2ccccc2Nc2ccnc3cc(Cl)ccc23)cc1OC, the IC50 (Plasmodium falciparum [1]) was 49.7 µM.

For COc1ccc(C(CCN2CCOCC2)NCC(C)Nc2ccnc3cc(Cl)ccc23)cc1 (configuration not stated), the IC50 (Plasmodium falciparum [6]) was 3.89 µM.

Molecule COC(=O)/C=C/c1ccccc1Nc1ccnc2cc(OC)ccc12 has an IC50 (Plasmodium falciparum [7]) of 15.3 µM.

Work on CC1(C)OB(c2ccc(OCc3cn(CCNc4ccnc5cc(Cl)ccc45)nn3)cc2C=O)OC1(C)C yielded an IC50 (Plasmodium falciparum [10]) of 6.23 µM and an IC50 (Plasmodium falciparum [11]) of 7.37 µM.

O=C1c2cccc(N3CCOCC3)c2C(=O)N1CCNc1ccnc2cc(Cl)ccc12 gave an IC50 (Plasmodium falciparum [8]) of 0.18 µM and an IC50 at 24 h [9] of 28.6 µM.

COc1ccc2nc(/C=C/c3ccc([N+](=O)[O-])cc3)cc(NC3CCCCC3)c2c1 showed an IC50 (Plasmodium falciparum [4]) of 0.171 µM.

O=C1c2ccc(N3CCOCC3)cc2C(=O)N1CCNc1ccnc2cc(Cl)ccc12 gave an IC50 (Plasmodium falciparum [8]) of 0.37 µM and an IC50 at 24 h [9] of 28.6 µM.

With COc1ccc2nc(/C=C/c3ccncc3)cc(NC3CCCCC3)c2c1 the IC50 (Plasmodium falciparum [3]) was 0.277 µM.

Work on O=C1c2cccc(N3CCCCC3)c2C(=O)N1CCCNc1ccnc2cc(Cl)ccc12 yielded an IC50 (Plasmodium falciparum [8]) of 0.162 µM and an IC50 at 24 h [9] of 55.8 µM.

CC1(C)OB(c2ccc(OCc3cn(-c4ccnc5ccc(Cl)cc45)nn3)cc2C=O)OC1(C)C showed an IC50 (Plasmodium falciparum [10]) of 6.19 µM and an IC50 (Plasmodium falciparum [11]) of 6.49 µM.

Work on COc1ccc2nc(/C=C/c3ccc([N+](=O)[O-])cc3)cc(N3CCN(C)CC3)c2c1 yielded an IC50 (Plasmodium falciparum [4]) of 0.452 µM.

Cc1cc(C(=O)NNc2ccnc3cc(Cl)ccc23)c2ccccc2n1 showed an IC50 (Plasmodium falciparum [2]) of 0.09 µM.

With COc1ccc2nc(/C=C/c3ccncc3)cc(N3CCN(CCO)CC3)c2c1 the IC50 (Plasmodium falciparum [3]) was > 10 µM.

With COc1ccc2nc(/C=C/c3ccc([N+](=O)[O-])cc3)cc(N3CCOCC3)c2c1 the IC50 (Plasmodium falciparum [4]) was > 10 µM.

In the case of CCc1nc(N)nc(N)c1-c1ccc(Cl)cc1 [PYRIMETHAMINE], the CC50 [5] is reported as 18.1 µM.

In the case of C=C[C@H]1CN2CC[C@H]1C[C@H]2[C@H](O)c1ccnc2ccc(OC)cc12 [QUININE], the IC50 (Plasmodium falciparum [10]) is reported as 0.504 µM and the IC50 (Plasmodium falciparum [2]) is reported as 0.83 µM.

Source: ChEMBL document CHEMBL5344418, “Recent developments in antimalarial activities of 4-aminoquinoline derivatives” (Eur J Med Chem, 2023)
